Measurements taken from PMC12586182 (Frontiers in Oncology, 2025).

Assays:
Assay in all cases: Kinase panel profiling at 1 µmol/L (mobility shift assay, Carna)
Format in all cases: biochemical
Conditions in all cases: 1 µmol/L of BTK inhibitor
RSK3 = target: T1, RSK3 (Homo sapiens, UniProt Q15349)
T1 construct: purchased Carna Biosciences

SGK = target: T2, SGK (Homo sapiens, UniProt O00141)
T2 construct: purchased Carna Biosciences
T2 sequence (O00141 1-431): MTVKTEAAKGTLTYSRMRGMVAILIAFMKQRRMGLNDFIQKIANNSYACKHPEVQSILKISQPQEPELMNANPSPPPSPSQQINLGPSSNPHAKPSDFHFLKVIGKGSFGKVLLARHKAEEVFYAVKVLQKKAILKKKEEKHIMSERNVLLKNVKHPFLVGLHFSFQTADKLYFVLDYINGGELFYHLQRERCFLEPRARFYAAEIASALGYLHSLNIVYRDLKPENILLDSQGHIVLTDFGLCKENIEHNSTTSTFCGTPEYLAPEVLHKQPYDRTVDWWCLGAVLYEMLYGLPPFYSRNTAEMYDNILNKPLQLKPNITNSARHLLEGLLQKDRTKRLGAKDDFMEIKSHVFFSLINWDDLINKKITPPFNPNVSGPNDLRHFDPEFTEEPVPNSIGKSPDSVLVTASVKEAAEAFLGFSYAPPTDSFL

DYRK1A = target: T3, DYRK1A (Homo sapiens, UniProt Q13627)
T3 construct: purchased Carna Biosciences

RET = target: T4, RET (Homo sapiens, UniProt P07949)
T4 construct: purchased Carna Biosciences

MARK4 = target: T5, MARK4 (Homo sapiens, UniProt Q96L34)
T5 construct: purchased Carna Biosciences
T5 sequence (Q96L34 1-752): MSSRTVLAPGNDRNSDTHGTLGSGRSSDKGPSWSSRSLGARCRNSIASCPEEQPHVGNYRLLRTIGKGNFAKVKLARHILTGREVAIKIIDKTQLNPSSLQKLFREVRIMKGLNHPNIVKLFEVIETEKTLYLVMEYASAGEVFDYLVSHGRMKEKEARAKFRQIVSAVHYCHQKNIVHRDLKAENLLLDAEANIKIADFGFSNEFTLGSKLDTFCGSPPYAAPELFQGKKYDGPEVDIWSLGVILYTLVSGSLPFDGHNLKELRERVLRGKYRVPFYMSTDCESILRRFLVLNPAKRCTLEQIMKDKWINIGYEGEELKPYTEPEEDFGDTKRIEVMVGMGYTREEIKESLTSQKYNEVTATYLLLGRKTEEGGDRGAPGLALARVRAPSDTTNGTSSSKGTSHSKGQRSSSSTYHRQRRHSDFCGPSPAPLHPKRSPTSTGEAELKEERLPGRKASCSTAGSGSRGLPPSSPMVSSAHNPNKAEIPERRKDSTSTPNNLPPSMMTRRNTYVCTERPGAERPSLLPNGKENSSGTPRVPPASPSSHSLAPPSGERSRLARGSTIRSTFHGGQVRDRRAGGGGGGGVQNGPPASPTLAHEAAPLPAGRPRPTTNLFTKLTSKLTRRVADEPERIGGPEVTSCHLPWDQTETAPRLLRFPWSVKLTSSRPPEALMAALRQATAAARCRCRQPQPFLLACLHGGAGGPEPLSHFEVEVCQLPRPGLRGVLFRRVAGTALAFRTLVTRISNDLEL

CDK5/p25 = target: T6, CDK5/p25 (Homo sapiens, UniProt Q00535)
T6 construct: purchased Carna Biosciences

CDK4/CycD3 = target: T7, CDK4/CycD3 (Homo sapiens, UniProt P11802)
T7 construct: purchased Carna Biosciences

TSSK3 = target: T8, TSSK3 (Homo sapiens, UniProt Q96PN8)
T8 construct: purchased Carna Biosciences
T8 sequence (Q96PN8 1-268): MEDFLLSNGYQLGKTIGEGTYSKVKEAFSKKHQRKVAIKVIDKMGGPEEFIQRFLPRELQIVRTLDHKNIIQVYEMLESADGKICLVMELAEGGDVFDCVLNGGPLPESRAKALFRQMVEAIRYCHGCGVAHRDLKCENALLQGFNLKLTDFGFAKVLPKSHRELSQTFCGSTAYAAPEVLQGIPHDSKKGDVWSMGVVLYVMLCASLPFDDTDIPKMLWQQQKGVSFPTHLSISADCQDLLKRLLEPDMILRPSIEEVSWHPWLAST

EPHA1 = target: T9, EPHA1 (Homo sapiens, UniProt P21709)
T9 construct: purchased Carna Biosciences
T9 sequence (P21709 26-976): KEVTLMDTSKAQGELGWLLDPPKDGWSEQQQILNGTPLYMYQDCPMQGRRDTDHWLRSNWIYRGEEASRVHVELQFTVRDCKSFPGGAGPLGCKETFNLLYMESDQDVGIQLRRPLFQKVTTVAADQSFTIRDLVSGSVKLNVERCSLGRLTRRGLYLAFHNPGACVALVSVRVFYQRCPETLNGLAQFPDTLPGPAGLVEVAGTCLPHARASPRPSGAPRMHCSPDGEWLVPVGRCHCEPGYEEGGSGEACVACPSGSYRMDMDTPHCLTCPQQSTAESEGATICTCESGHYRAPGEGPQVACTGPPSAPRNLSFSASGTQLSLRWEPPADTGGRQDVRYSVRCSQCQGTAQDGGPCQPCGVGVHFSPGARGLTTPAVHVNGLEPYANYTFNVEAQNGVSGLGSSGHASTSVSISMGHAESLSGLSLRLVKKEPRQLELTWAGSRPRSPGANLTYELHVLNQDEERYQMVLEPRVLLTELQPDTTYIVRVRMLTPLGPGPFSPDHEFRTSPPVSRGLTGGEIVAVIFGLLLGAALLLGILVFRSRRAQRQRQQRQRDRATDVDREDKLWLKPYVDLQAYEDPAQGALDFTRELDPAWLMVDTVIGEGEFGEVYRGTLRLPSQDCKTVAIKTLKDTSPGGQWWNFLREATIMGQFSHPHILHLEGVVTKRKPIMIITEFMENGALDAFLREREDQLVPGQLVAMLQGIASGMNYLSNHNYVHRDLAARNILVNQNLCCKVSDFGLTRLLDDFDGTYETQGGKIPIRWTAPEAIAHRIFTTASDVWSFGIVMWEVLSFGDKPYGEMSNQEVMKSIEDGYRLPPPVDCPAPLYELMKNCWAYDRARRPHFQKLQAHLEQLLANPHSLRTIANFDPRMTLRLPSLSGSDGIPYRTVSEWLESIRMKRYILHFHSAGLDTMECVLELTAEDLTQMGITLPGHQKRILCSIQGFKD

PASK = target: T10, PASK (Homo sapiens, UniProt Q96RG2)
T10 construct: purchased Carna Biosciences

CDK9/CycT1 = target: T11, CDK9/CycT1 (Homo sapiens, UniProt P50750)
T11 construct: purchased Carna Biosciences
T11 sequence (P50750 whole entry): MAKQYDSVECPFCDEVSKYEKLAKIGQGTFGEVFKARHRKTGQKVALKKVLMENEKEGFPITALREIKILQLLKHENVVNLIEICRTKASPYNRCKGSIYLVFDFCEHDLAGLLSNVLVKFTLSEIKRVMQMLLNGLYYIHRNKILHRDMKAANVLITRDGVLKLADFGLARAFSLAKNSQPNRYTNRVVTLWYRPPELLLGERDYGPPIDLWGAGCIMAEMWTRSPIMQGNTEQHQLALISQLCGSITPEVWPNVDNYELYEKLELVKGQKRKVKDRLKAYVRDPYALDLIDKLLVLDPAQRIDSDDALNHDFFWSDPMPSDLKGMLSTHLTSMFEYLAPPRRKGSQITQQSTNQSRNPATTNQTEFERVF
T11 sequence (O60563 whole entry partner): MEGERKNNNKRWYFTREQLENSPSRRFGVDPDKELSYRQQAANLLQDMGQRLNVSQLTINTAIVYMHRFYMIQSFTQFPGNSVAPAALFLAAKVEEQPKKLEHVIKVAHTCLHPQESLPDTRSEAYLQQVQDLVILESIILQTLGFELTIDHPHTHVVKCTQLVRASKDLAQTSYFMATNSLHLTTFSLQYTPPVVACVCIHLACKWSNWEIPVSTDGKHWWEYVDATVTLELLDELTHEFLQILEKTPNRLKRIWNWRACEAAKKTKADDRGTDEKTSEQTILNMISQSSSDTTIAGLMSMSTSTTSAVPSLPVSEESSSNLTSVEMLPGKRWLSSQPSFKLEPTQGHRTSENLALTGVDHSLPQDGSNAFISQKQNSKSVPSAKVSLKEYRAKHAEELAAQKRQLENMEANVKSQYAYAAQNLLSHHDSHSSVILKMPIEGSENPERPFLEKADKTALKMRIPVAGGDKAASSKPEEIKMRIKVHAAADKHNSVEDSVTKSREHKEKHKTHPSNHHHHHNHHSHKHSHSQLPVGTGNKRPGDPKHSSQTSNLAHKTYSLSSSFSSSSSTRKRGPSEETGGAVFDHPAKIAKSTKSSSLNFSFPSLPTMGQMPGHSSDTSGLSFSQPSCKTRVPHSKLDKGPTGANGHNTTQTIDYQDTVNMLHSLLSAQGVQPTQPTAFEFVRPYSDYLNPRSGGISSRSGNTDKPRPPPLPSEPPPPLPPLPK

T7 sequence (P11802 whole entry): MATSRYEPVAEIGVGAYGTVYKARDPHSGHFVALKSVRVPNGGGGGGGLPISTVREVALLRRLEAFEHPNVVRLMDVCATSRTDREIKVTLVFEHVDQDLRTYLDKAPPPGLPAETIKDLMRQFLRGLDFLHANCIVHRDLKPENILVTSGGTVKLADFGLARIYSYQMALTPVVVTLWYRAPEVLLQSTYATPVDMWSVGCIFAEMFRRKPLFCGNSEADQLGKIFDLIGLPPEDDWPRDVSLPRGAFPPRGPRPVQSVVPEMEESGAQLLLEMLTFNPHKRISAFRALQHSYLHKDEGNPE
T7 sequence (P30281 whole entry partner): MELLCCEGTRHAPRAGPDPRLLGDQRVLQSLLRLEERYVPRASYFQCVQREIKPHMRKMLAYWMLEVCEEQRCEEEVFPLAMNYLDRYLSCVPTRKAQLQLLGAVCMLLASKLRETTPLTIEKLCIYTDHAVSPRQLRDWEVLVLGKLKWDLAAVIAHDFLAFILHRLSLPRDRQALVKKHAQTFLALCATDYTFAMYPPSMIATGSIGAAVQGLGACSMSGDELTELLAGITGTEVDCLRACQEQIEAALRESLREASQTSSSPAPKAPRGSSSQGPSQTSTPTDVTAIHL
T6 sequence (Q00535 whole entry): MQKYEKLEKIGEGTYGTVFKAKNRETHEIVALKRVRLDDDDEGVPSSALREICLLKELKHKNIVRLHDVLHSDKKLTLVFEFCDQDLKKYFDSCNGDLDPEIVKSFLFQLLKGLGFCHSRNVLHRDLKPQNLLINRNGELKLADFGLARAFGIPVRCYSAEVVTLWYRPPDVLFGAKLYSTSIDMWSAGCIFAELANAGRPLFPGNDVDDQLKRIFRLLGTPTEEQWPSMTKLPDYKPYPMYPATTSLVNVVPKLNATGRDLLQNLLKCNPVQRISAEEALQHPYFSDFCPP
T6 sequence (Q15078 99-307 partner limits assumed): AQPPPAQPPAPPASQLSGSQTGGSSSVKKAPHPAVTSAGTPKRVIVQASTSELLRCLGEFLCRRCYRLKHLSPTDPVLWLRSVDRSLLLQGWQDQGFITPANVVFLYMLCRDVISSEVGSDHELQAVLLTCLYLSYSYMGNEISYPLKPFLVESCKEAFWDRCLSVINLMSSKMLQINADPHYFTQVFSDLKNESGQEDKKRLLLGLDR
T10 sequence (Q96RG2 whole entry): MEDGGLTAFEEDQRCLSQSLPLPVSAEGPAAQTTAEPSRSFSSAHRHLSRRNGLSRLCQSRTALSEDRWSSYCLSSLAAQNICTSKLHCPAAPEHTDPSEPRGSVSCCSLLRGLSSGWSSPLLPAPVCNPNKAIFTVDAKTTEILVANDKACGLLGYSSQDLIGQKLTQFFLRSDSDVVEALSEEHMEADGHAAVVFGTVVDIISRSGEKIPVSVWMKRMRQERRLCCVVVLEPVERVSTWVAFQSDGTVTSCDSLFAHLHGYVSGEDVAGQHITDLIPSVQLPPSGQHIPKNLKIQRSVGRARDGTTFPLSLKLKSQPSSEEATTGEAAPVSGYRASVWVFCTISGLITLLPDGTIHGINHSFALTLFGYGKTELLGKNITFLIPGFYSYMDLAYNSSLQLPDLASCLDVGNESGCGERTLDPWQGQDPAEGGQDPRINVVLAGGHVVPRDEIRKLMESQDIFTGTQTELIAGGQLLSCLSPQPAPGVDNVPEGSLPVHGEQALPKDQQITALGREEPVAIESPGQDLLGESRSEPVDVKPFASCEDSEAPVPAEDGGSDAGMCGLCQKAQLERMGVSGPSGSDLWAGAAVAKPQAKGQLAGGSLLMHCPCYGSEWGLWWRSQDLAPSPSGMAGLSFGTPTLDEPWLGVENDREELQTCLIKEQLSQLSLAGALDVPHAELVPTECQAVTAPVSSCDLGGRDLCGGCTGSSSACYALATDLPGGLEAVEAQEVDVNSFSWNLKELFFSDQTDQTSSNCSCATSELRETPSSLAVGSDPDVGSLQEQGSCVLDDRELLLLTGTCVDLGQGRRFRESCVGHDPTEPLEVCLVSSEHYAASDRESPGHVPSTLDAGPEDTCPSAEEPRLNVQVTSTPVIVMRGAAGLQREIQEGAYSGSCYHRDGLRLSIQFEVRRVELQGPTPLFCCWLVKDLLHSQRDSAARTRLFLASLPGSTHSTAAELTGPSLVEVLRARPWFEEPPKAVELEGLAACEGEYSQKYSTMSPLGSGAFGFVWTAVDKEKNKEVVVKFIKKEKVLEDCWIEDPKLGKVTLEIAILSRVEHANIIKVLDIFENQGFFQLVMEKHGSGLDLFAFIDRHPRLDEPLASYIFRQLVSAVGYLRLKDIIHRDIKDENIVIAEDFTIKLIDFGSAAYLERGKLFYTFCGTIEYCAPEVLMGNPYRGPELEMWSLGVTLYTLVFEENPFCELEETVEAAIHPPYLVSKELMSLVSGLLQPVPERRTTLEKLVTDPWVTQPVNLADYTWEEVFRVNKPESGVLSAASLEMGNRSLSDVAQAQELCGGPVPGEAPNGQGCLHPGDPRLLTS
T1 sequence (Q15349 whole entry): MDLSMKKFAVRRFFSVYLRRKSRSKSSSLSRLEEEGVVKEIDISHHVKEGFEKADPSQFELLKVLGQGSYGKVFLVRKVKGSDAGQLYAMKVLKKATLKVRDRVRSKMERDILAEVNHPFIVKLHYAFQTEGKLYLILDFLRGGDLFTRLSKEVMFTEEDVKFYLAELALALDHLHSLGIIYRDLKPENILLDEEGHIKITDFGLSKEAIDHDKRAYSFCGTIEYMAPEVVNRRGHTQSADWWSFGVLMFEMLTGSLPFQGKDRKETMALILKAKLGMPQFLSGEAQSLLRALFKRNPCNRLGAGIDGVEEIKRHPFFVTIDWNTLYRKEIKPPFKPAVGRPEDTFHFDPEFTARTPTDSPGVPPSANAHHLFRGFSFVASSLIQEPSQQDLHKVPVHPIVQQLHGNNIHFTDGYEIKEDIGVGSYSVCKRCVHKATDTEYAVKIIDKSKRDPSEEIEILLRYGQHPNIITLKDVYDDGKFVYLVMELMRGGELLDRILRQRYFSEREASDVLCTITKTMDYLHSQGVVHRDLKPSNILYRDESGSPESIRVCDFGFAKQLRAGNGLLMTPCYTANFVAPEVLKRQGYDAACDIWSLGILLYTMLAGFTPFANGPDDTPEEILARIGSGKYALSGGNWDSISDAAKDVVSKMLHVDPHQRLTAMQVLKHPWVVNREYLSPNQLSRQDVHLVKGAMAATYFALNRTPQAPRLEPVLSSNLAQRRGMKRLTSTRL

CC#CC(=O)N1CCC[C@H]1c1nc(-c2ccc(C(=O)Nc3ccccn3)cc2)c2c(N)nccn12 [acalabrutinib]
Percentage inhibition of kinase enzyme activity (RSK3): 1.13% | Percentage inhibition of kinase enzyme activity (SGK): -5.11% | Percentage inhibition of kinase enzyme activity (DYRK1A): -4.57% | Percentage inhibition of kinase enzyme activity (RET): 13.72% | Percentage inhibition of kinase enzyme activity (MARK4): -15.24% | Percentage inhibition of kinase enzyme activity (CDK5/p25): -19.05% | Percentage inhibition of kinase enzyme activity (CDK4/CycD3): -13.28% | Percentage inhibition of kinase enzyme activity (TSSK3): -7.85% | Percentage inhibition of kinase enzyme activity (EPHA1): -0.59% | Percentage inhibition of kinase enzyme activity (PASK): -5.37% | Percentage inhibition of kinase enzyme activity (CDK9/CycT1): 15.27%

C=CC(=O)N1CCC[C@@H](n2nc(-c3ccc(Oc4ccccc4)cc3)c3c(N)ncnc32)C1 [ibrutinib]
Percentage inhibition of kinase enzyme activity (RSK3): 8.80% | Percentage inhibition of kinase enzyme activity (SGK): -21.37% | Percentage inhibition of kinase enzyme activity (DYRK1A): -3.54% | Percentage inhibition of kinase enzyme activity (RET): 87.66% | Percentage inhibition of kinase enzyme activity (MARK4): -14.26% | Percentage inhibition of kinase enzyme activity (CDK5/p25): -5.18% | Percentage inhibition of kinase enzyme activity (CDK4/CycD3): 4.00% | Percentage inhibition of kinase enzyme activity (TSSK3): -3.87% | Percentage inhibition of kinase enzyme activity (EPHA1): 49.82% | Percentage inhibition of kinase enzyme activity (PASK): -0.0437%

O=C(c1ccc(Oc2ccccc2)cc1Cl)c1c[nH]c2ncnc(N[C@@H]3CC[C@@H](CO)OC3)c12 [nemtabrutinib]
Percentage inhibition of kinase enzyme activity (RSK3): 19.54% | Percentage inhibition of kinase enzyme activity (SGK): 1.16% | Percentage inhibition of kinase enzyme activity (DYRK1A): -2.18% | Percentage inhibition of kinase enzyme activity (RET): 98.99% | Percentage inhibition of kinase enzyme activity (MARK4): 20.90% | Percentage inhibition of kinase enzyme activity (CDK5/p25): -18.80% | Percentage inhibition of kinase enzyme activity (CDK4/CycD3): 0.33% | Percentage inhibition of kinase enzyme activity (TSSK3): 2.56% | Percentage inhibition of kinase enzyme activity (EPHA1): 58.54% | Percentage inhibition of kinase enzyme activity (PASK): 21.76% | Percentage inhibition of kinase enzyme activity (CDK9/CycT1): -0.08%

COc1ccc(F)cc1C(=O)NCc1ccc(-c2nn([C@@H](C)C(F)(F)F)c(N)c2C(N)=O)cc1 [pirtobrutinib]
Percentage inhibition of kinase enzyme activity (RSK3): 1.65% | Percentage inhibition of kinase enzyme activity (SGK): 3.55% | Percentage inhibition of kinase enzyme activity (DYRK1A): -2.78% | Percentage inhibition of kinase enzyme activity (RET): 51.77% | Percentage inhibition of kinase enzyme activity (MARK4): -2.93% | Percentage inhibition of kinase enzyme activity (CDK5/p25): 4.92% | Percentage inhibition of kinase enzyme activity (CDK4/CycD3): 4.05% | Percentage inhibition of kinase enzyme activity (TSSK3): -1.40% | Percentage inhibition of kinase enzyme activity (EPHA1): -1.27% | Percentage inhibition of kinase enzyme activity (PASK): 3.07% | Percentage inhibition of kinase enzyme activity (CDK9/CycT1): -6.41%

C=CC(=O)N1CCC([C@@H]2CCNc3c(C(N)=O)c(-c4ccc(Oc5ccccc5)cc4)nn32)CC1 [zanubrutinib]
Percentage inhibition of kinase enzyme activity (SGK): -0.67% | Percentage inhibition of kinase enzyme activity (RET): 18.89% | Percentage inhibition of kinase enzyme activity (EPHA1): -1.86%
